{
  "source": "patent US8338643B2",
  "about": "“Reagent for introduction of protein or gene” (Waseda University, priority 2006, dated 2012)",
  "key": {"[1]": {"assay": "ζ potential of liposomes", "type": "physicochemical", "settings": "for ζ potential: DOPE mixed membrane, in mV", "description": "As evaluation of physical properties, the quantification of lipid was carried out by means of quantification of choline-type phospholipid, and quantification of encapsulated protein was carried out by means of HPLC (220 nm). In addition, the particle size and ζ potential were measured by the dynamic light scattering method (BECKMAN COULTER, N4 PLUS). […]\n(§1) The particle size and the ζ potential of the prepared cationic liposomes were measured. In the measurement of the particle size, the particle size in the case of the lipid concentration of 30 μM was measured by the dynamic light scattering method. In the measurement of the ζ potential, a liposome dispersion was diluted with a HEPES buffer solution (pH 7.4), and the ζ potential in the case of 30 μM was measured.\nNext, the ζ potential of the prepared cationic liposomes was measured. A to D in the table was the same as Table 9."}, "[2]": {"tested_on": "COS-1 cells", "assay": "Gene expression level by luciferase assay, lipid/pDNA complex", "type": "cell-based", "settings": "for Gene expression level: COS-1, DOPE/cationic lipid liposome, 200 ng DNA, 24 hours", "description": "(§2) Use of a cationic lipid as a reagent for gene introduction was studied. Cationic liposomes consisting of a mixed membrane constituted by DOPE as a membrane-fusogenic lipid and a cationic lipid were prepared. 15 mg of the mixed lipid (the introduction amount of cationic lipid membrane in mixed membrane was adjusted to 20, 30, 40 or 50 mol %) was dispersed in 1.5 mL of the HEPES buffer solution (pH 7.4), and a liposome having the particle size of about 100 nm was prepared using a probe-type ultrasonic apparatus. The particle size was measured by the dynamic light scattering method. In the table, A represents a cationic lipid 2 and a cationic lipid 6; B represents a cationic lipid 5; C represents a cationic lipid 7; and D represents a cationic lipid 8.\nIn order to evaluate the gene transfer ability of the prepared cationic liposomes, the gene expression level was calculated based on luciferase assay using an luciferase-encoding plasmid vector (phRL-TK) (n=3).\nThe experimental protocol was as follows. The amount of transfected DNA was set to 200 ng in all the cases. In 100 μL of medium, COS-1 cells (1×10^4 cells/well) were seeded on a 96-well plate, and cultured in a CO2 incubator for 12 hours. A complex of lipid and plasmid DNA (lipid/pDNA complex) was allowed to stand for minutes, and diluted with the medium to be added to the cells. After that, culture in the CO2 incubator was carried out for 24 hours. The medium was removed, and washing with PBS(−) was carried out twice. Then, a dissolution buffer diluted 5-fold with MilliQ water was added to the medium (25 μl/well), and the cells were solubilized. The obtained solution was mildly stirred and allowed to stand at room temperature for minutes. To 20 μL of the cell solution, 100 μL of the coelenterazine solution was added, and the luminescence intensity was measured using a luminometer."}, "[3]": {"assay": "Particle size of liposomes by dynamic light scattering", "type": "physicochemical", "settings": "DOPE mixed membrane, in nm", "description": "as §1, §2"}},
  "data": [
    {"molecule": "CCCCCCCCCCCCCCCCOC(=O)CCC(NC(=O)CCCCCNC(=O)C(N)CCCCN)C(=O)OCCCCCCCCCCCCCCCC", "note": "(stereo not drawn) [Compound 5, Lys-(CH2)5-Glu2C16]", "values": [
      {"measurement": "ζ potential", "setting": "[1]; cationic lipid 20 mol %", "value": "28 ± 3.4"},
      {"measurement": "ζ potential", "setting": "[1]; cationic lipid 30 mol %", "value": "37 ± 0.2"},
      {"measurement": "ζ potential", "setting": "[1]; cationic lipid 40 mol %", "value": "42 ± 3.0"},
      {"measurement": "ζ potential", "setting": "[1]; cationic lipid 50 mol %", "value": "41 ± 1.3"},
      {"measurement": "Gene expression level", "setting": "[2]", "value": "the expression level was lower than that of the spacer-contained lipid 6"},
      {"measurement": "Particle size", "setting": "[3]; cationic lipid 20 mol %", "value": "99 ± 45"},
      {"measurement": "Particle size", "setting": "[3]; cationic lipid 30 mol %", "value": "95 ± 46"},
      {"measurement": "Particle size", "setting": "[3]; cationic lipid 40 mol %", "value": "91 ± 43"},
      {"measurement": "Particle size", "setting": "[3]; cationic lipid 50 mol %", "value": "100 ± 47"}
    ]},
    {"molecule": "Lys-(CH2)7-Glu2C16 [Compound 7]", "values": [
      {"measurement": "ζ potential", "setting": "[1]; cationic lipid 20 mol %", "value": "34 ± 42"},
      {"measurement": "ζ potential", "setting": "[1]; cationic lipid 30 mol %", "value": "40 ± 3.3"},
      {"measurement": "ζ potential", "setting": "[1]; cationic lipid 40 mol %", "value": "49 ± 3.3"},
      {"measurement": "ζ potential", "setting": "[1]; cationic lipid 50 mol %", "value": "37 ± 3.1"},
      {"measurement": "Gene expression level", "setting": "[2]", "value": "the gene expression level was low"},
      {"measurement": "Particle size", "setting": "[3]; cationic lipid 20 mol %", "value": "88 ± 42"},
      {"measurement": "Particle size", "setting": "[3]; cationic lipid 30 mol %", "value": "98 ± 37"},
      {"measurement": "Particle size", "setting": "[3]; cationic lipid 40 mol %", "value": "86 ± 40"},
      {"measurement": "Particle size", "setting": "[3]; cationic lipid 50 mol %", "value": "100 ± 48"}
    ]},
    {"molecule": "Lys-(CH2)3-Glu2C16 [Compound 6]", "values": [
      {"measurement": "Gene expression level", "setting": "[2]", "value": "a high expression efficiency was obtained"},
      {"measurement": "Gene expression efficiency at best conditions", "setting": "[2]; DOPE/lipid 6=6/4 (mol ratio), cationic liposome/plasmid DNA 10/1 (w/w)", "value": "The highest expression efficiency was obtained"}
    ]},
    {"molecule": "Lys-(CH2)11-Glu2C16 [Compound 8]", "values": [
      {"measurement": "ζ potential, comparison between lipids", "setting": "[1]; DOPE mixed membrane liposomes", "value": "slightly lower than that of the lipid 7"},
      {"measurement": "ζ potential", "setting": "[1]; cationic lipid 20 mol %", "value": "30 ± 1.2"},
      {"measurement": "ζ potential", "setting": "[1]; cationic lipid 30 mol %", "value": "37 ± 0.8"},
      {"measurement": "ζ potential", "setting": "[1]; cationic lipid 40 mol %", "value": "37 ± 3.1"},
      {"measurement": "ζ potential", "setting": "[1]; cationic lipid 50 mol %", "value": "44 ± 1.6"},
      {"measurement": "Particle size", "setting": "[3]; cationic lipid 20 mol %", "value": "95 ± 36"},
      {"measurement": "Particle size", "setting": "[3]; cationic lipid 30 mol %", "value": "113 ± 50"},
      {"measurement": "Particle size", "setting": "[3]; cationic lipid 40 mol %", "value": "80 ± 39"},
      {"measurement": "Particle size", "setting": "[3]; cationic lipid 50 mol %", "value": "95 ± 36"}
    ]},
    {"molecule": "CCCCCCCCCCCCCCCCOC(=O)CCC(NC(=O)C(N)CCCCN)C(=O)OCCCCCCCCCCCCCCCC", "note": "(stereo not drawn) [Compound 2, Lys-Glu2C16]", "values": [
      {"measurement": "Gene expression level", "setting": "[2]", "value": "the gene expression level was low"}
    ]}
  ]
}
